Results taken from patent US11702414B2, “Thiadiazole IRAK4 inhibitors” (Gilead Sciences, Inc., priority 2018, dated 2023).
Like-named read-outs stand apart in the source and are kept apart here.

Tests used:
TNFα = test: IRAK4 Monocyte TNFα Cell Based Assay; design: species or system human
Experimental: IRAK4 Monocyte TNFα Cell Based Assay Procedure:
The cell suspension was then plated at a density of 5,000 cells/well onto black 384 well Greiner clear bottom plates. Plates were pre-spotted with test compounds and serially diluted in DMSO where 40 nL/well were delivered using the Echo 550 acoustic liquid dispenser (Labcyte®) for a final DMSO concentration of 0.1%. Plated cells were treated with compound for 1 hour at 37° C. Cells were then stimulated with 50 pg/ml of LPS (Sigma) excluding outside columns of plate used for unstimulated cell control wells. Cells were incubated for an additional 4 hours at 37° C. Cells were then spun out of the media and 5μl of sample were taken and analyzed for total TNFα content using the TR-FRET Human TNFα detection system (CisBio). This system utilizes two labeled antibodies (cryptate and XL665) that bind to two different epitopes of the TNFα molecule and produce FRET signal proportional to the concentration of TNFα in the sample. Detection antibodies are mixed 50:50 and 5 μL were dispensed into each well. Plates were covered with clear seals and incubated at room temp overnight. […] Percent of control was calculated as follows: % Control=100×(RatioSample−Ratio0% Stimulation)/(Ratio100% Stimulation−Ratio0% Stimulation) where unstimulated cells (0% stimulation) were the negative control and stimulated cells (100% stimulation) were used as the positive control.

IRAK4 enzyme = IRAK4 enzyme (Homo sapiens (Human), UniProt Q9NWZ3); test: IRAK4 Biochemical Assay (TR-FRET, STK1 KinEASE)
Experimental: IRAK4 enzyme (Carna Biosciences, Chuo-ku, Kobe, Japan) activity was measured by detecting phosphorylated peptide substrate formation using an antibody against the phosphorylated peptide substrate. This is a time-resolved fluorescence resonance energy transfer (TR-FRET) immunoassay, based on the STK1 KinEASE Assay (Cisbio, Bedford, Mass.). The assay was designed as a simple two-step, endpoint assay (a 5 μl enzyme reaction followed by 5 μl stop and detect Solution) performed in ProxiPlate-384 Plus plates (Perkin Elmer, Waltham, Mass.). […] Compounds diluted in DMSO were spotted into 384 well plates using a Labcyte® Echo 550 Liquid Handling System prior to addition of IRAK4 enzyme and peptide substrate. Reaction solutions were delivered using a Multi-Flo (Bio-Tek Instruments). The enzyme and peptide solution was incubated with compound for 15 minutes at room temp before the reaction was initiated by the addition of ATP. The standard 5 μl reaction mixture contained 500 μM ATP, 2 μM peptide (STK1 Peptide), 0.75 nM of IRAK4 in reaction buffer (50 mM HEPES, pH 7.0, 0.02% NaN3, 0.01% BSA, 0.1 mM Orthovanadate, 5 mM MgCl2, 0.025% NP-40, 1 mM DTT). After 120 min of incubation at room temperature, 5 μl of Stop and Detect Solution (1:100 Cryptate labeled anti-phosphorylated peptide antibody solution and 125 nM Tracer in a 50 mM HEPES pH 7.0 detection buffer containing sufficient EDTA) was added. The plate was then further incubated for 60 minutes at room temperature and read on Envision 2103 Multilabeled reader (PerkinElmer) with excitation/emission/FRET emission at 340 nm/615 nm/665 nm, respectively. Fluorescence intensities at 615 nm and 665 nm emission wavelengths were expressed as a ratio (665 nm/615 nm). Percentage of inhibition was calculated as below: % Inhibition=100×(RatioSample−Ratio0% Inhibition)/(Ratio100% Inhibition−Ratio0% Inhibition)
The 0% inhibition value comes from control wells lacking inhibitor.

[1] = Homo sapiens, Monocyte, human monocytes, second part of Table 2 (compounds 33-343), unit inferred, read-out: EC50MONO TNF HTRF
[2] = Homo sapiens, Monocyte, read-out: EC50MONO TNF HTRF
[3] = second part of Table 2 (compounds 33-343), unit inferred, read-out: IC50 IRAK4-HTBS

Chain of IRAK4 enzyme (Q9NWZ3 whole entry): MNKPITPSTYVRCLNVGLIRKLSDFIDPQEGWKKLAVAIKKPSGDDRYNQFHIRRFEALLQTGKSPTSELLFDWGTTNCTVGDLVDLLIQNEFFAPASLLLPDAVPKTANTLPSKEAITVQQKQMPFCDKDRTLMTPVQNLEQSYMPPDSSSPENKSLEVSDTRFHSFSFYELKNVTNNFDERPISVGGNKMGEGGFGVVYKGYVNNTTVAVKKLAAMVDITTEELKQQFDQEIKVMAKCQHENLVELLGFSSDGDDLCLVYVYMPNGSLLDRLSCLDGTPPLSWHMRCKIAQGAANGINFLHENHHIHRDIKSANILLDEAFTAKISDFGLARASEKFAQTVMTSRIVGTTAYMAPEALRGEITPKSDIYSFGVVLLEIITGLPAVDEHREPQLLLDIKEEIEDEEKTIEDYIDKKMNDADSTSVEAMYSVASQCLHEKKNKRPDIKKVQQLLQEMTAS

Row | Molecule | EC50 (TNFα; [1]) | IC50 (IRAK4 enzyme) | also measured
1 | CC(=O)NC1CCC2(CC1)CN(c1nnc(-c3cnc(-c4ccc5cc(C#N)cnn45)cc3NC3(C)COC3)s1)C2 [Example 99, N-(2-(5-(6-(3-cyanopyrrolo[1,2-b]pyridazin-7-yl)-4-((3-methyloxetan-3-yl)amino)pyridin-3-yl)-1,3,4-thiadiazol-2-yl)-2-azaspiro[3.5]nonan-7-yl)acetamide] | 5.8 nM | 0.63 nM | 
2 | CC(=O)N1CC2CCC(C1)N2c1nnc(-c2cnc(-c3ccc4cc(C#N)cnn34)cc2NC(C)C)s1 [Compound 260, 7-(5-(5-(3-acetyl-3,8-diazabicyclo[3.2.1]octan-8-yl)-1,3,4-thiadiazol-2-yl)-4-(isopropylamino)pyridin-2-yl)pyrrolo[1,2-b]pyridazine-3-carbonitrile] |  | 2.56 nM | EC50 (TNFα; [2]): 15.8 nM
3 | N-((1R,5S,8s)-3-(5-(6-(3-cyanopyrrolo[1,2-b]pyridazin-7-yl)-4-(isopropylamino)pyridin-3-yl)-1,3,4-thiadiazol-2-yl)-3-azabicyclo[3.2.1]octan-8-yl)-2-((dimethyl(oxo)-16-sulfanylidene)amino)acetamide [Example 98] |  |  | EC50 (TNFα; human monocytes, second part of Table 2 (compounds 33-343), unit inferred, read-out: EC50MONO TNF HTRF): 3.2 nM; IC50 (IRAK4 enzyme; [3]): 1.13 nM
4 | CC(C)Nc1cc(-c2ccc3cc(C#N)cnn23)ncc1-c1nnc(N2CC3CCC(C2)C3(O)C(F)(F)F)s1 (stereo not drawn) [Example 159, 7-(5-(5-(8-hydroxy-8-(trifluoromethyl)-3-azabicyclo[3.2.1]octan-3-yl)-1,3,4-thiadiazol-2-yl)-4-(isopropylamino)pyridin-2-yl)pyrrolo[1,2-b]pyridazine-3-carbonitrile] | 25.7 nM | 6.38 nM | 
5 | CC(C)Nc1cc(-c2ccc3cc(C#N)cnn23)ncc1-c1nnc(N2CCC(O)(C(F)(F)F)CC2)s1 [Example 172, 7-(5-(5-(4-hydroxy-4-(trifluoromethyl)piperidin-1-yl)-1,3,4-thiadiazol-2-yl)-4-(isopropylamino)pyridin-2-yl)pyrrolo[1,2-b]pyridazine-3-carbonitrile] | 34.4 nM | 2.99 nM | 
6 | CC(=O)N1C2CCC1CN(c1nnc(-c3cnc(-c4ccc5cc(C#N)cnn45)cc3NC3(C)COC3)s1)C2 [Compound 264, 7-(5-(5-(8-acetyl-3,8-diazabicyclo[3.2.1]octan-3-yl)-1,3,4-thiadiazol-2-yl)-4-((3-methyloxetan-3-yl)amino)pyridin-2-yl)pyrrolo[1,2-b]pyridazine-3-carbonitrile] |  | 0.59 nM | EC50 (TNFα; [2]): 2.7 nM
7 | CC(=O)N[C@H]1CN(c2nnc(-c3cnc(-c4ccc5cc(C#N)cnn45)cc3NC(C)C)s2)CC12CC2 [Compound 323, (R)-N-(5-(5-(6-(3-cyanopyrrolo[1,2-b]pyridazin-7-yl)-4-(isopropylamino)pyridin-3-yl)-1,3,4-thiadiazol-2-yl)-5-azaspiro[2.4]heptan-7-yl)acetamide] | 3.7 nM | 0.62 nM | 
8 | CC(C)Nc1cc(-c2ccc3cc(C#N)cnn23)ncc1-c1nnc(C2CCC(C#N)CC2)s1 (stereo not drawn) [Compound 333, 7-(5-(5-(4-cyanocyclohexyl)-1,3,4-thiadiazol-2-yl)-4-(isopropylamino)pyridin-2-yl)pyrrolo[1,2-b]pyridazine-3-carbonitrile] | 1000 nM | 1.99 nM | 
9 | CC(C)(O)C(=O)NC12CCC(c3nnc(-c4cnc(-c5ccc6cc(C#N)cnn56)cc4NC4COC4)s3)(C1)C2 [Compound 335, N-(4-(5-(6-(3-cyanopyrrolo[1,2-b]pyridazin-7-yl)-4-(oxetan-3-ylamino)pyridin-3-yl)-1,3,4-thiadiazol-2-yl)bicyclo[2.1.1]hexan-1-yl)-2-hydroxy-2-methylpropanamide] | 48.9 nM | 0.64 nM | 
10 | CC(=O)N[C@H]1CCN(c2nnc(-c3cnc(-c4ccc5cc(C#N)cnn45)cc3NC(C)C)s2)C1 [Compound 331, (S)-N-(1-(5-(6-(3-cyanopyrrolo[1,2-b]pyridazin-7-yl)-4-(isopropylamino)pyridin-3-yl)-1,3,4-thiadiazol-2-yl)pyrrolidin-3-yl)acetamide] | 81.4 nM | 1.21 nM | 
11 | CC(C)Nc1cc(-c2ccc3cc(C#N)cnn23)ncc1-c1nnc(C2CCOCC2)s1 [Example 32, 7-(4-(isopropylamino)-5-(5-(tetrahydro-2H-pyran-4-yl)-1,3,4-thiadiazol-2-yl)pyridin-2-yl)pyrrolo[1,2-b]pyridazine-3-carbonitrile] |  |  | EC50 (TNFα; Homo sapiens, Monocyte, human monocytes, LPS-stimulated, compounds 1-32, read-out: EC50 TNF): 211 nM; IC50 (IRAK4 enzyme; compounds 1-32, read-out: IC50 HTRF): < 1 nM
12 | CC(C)Nc1cc(-c2ccc3cc(C#N)cnn23)ncc1-c1nnc(C2CCOC2)s1 (stereo not drawn) [Compound 322, 7-(4-(isopropylamino)-5-(5-(tetrahydrofuran-3-yl)-1,3,4-thiadiazol-2-yl)pyridin-2-yl)pyrrolo[1,2-b]pyridazine-3-carbonitrile] | 419 nM | 0.31 nM | 
13 | CC(C)Nc1cc(-c2ccc3cc(C#N)cnn23)ncc1-c1nnc(-n2cccn2)s1 [Compound 325, 7-(5-(5-(1H-pyrazol-1-yl)-1,3,4-thiadiazol-2-yl)-4-(isopropylamino)pyridin-2-yl)pyrrolo[1,2-b]pyridazine-3-carbonitrile] | 1000 nM | 8.07 nM | 
14 | CC(C)Nc1cc(-c2ccc3cc(C#N)cnn23)ncc1-c1nnc(C(C)(C)O)s1 [Example 80, 7-(5-(5-(2-hydroxypropan-2-yl)-1,3,4-thiadiazol-2-yl)-4-(isopropylamino)pyridin-2-yl)pyrrolo[1,2-b]pyridazine-3-carbonitrile] | 114 nM | 1.16 nM | 
15 | CC(C)Nc1cc(-c2ccc3cc(C#N)cnn23)ncc1-c1nnc(CC#N)s1 [Compound 321, 7-(5-(5-(cyanomethyl)-1,3,4-thiadiazol-2-yl)-4-(isopropylamino)pyridin-2-yl)pyrrolo[1,2-b]pyridazine-3-carbonitrile] | 53.5 nM | 1.46 nM | 
16 | CC(=O)N1[C@@H]2COC[C@H]1CN(c1nnc(-c3cnc(-c4ccc5cc(C#N)cnn45)cc3NC3CCOCC3)s1)C2 [Compound 269, 7-(5-(5-((1R,5S)-9-acetyl-3-oxa-7,9-diazabicyclo[3.3.1]nonan-7-yl)-1,3,4-thiadiazol-2-yl)-4-((tetrahydro-2H-pyran-4-yl)amino)pyridin-2-yl)pyrrolo[1,2-b]pyridazine-3-carbonitrile] |  | 0.8 nM | EC50 (TNFα; [2]): 5.8 nM
17 | CC(=O)N1C[C@@H]2C[C@H]1CN2c1nnc(-c2cnc(-c3ccc4cc(C#N)cnn34)cc2NC(C)C)s1 [Example 302, 7-(5-(5-((1S,4S)-5-acetyl-2,5-diazabicyclo[2.2.1]heptan-2-yl)-1,3,4-thiadiazol-2-yl)-4-(isopropylamino)pyridin-2-yl)pyrrolo[1,2-b]pyridazine-3-carbonitrile] | 5.3 nM | 0.59 nM | 
18 | CC(=O)NC1CCC(F)(c2nnc(-c3cnc(-c4ccc5cc(C#N)cnn45)cc3NC3COC3)s2)CC1 (single isomer, unassigned) [Example 196, N-(4-(5-(6-(3-cyanopyrrolo[1,2-b]pyridazin-7-yl)-4-(oxetan-3-ylamino)pyridin-3-yl)-1,3,4-thiadiazol-2-yl)-4-fluorocyclohexyl)acetamide] |  |  | IC50 (IRAK4 enzyme; [3]): 1.62 nM
19 | CC(=O)NC1CCC(F)(c2nnc(-c3cnc(-c4ccc5cc(C#N)cnn45)cc3NC3COC3)s2)CC1 (single isomer, unassigned) [Example 195, N-(4-(5-(6-(3-cyanopyrrolo[1,2-b]pyridazin-7-yl)-4-(oxetan-3-ylamino)pyridin-3-yl)-1,3,4-thiadiazol-2-yl)-4-fluorocyclohexyl)acetamide] |  |  | IC50 (IRAK4 enzyme; [3]): 1.09 nM
